This is an account of results in patent publication US9581587B2, “Sperm staining and sorting methods” (INGURAN, LLC, priority 2011, dated 2017).

Test [1] relates to membrane compromised sperm. Description: Dead gate intensity divided by live gate intensity, flow cytometer (Example 5). Type of test: cell-based. To be noted: for ability to create a dead gate population (ordering of the four dyes): from dead and live intensity data of Table 13. The method, then: (§1) A single Jersey bull was collected at an initial sperm concentration 1900×10^6 sperm/ml in a volume of 5 ml. The progressive motility of the sperm was 65% with normal morphologies greater than 65%.
(§2) The entire ejaculate of sperm was suspended in first staining buffer, specifically a 7.4 pH TALP described in TABLE 1, to a concentration of 160×10^6 sperm per mL (determined on nucleocounter) and divided into three aliquots of about 20 mL into 50 mL Falcon tubes and pre-warmed for 10 minutes at 34° C. The DNA selective fluorescent dye, Hoechst 33342, was added and samples were held at 34° C. for 60 minutes. 3 different Hoechst 33342 Stain Levels were used=12 μL, 14 μL and 16 μL per 2 mL (effective concentrations of 48 μM, 56 μM, 64 μM).
(§3) Preparation of the second buffer including the dead quenching dye—A 2 L bag of TALP, described in TABLE 1, was adjusted to pH 5.60 using HCl and then sterile filtered. […] For each of the four dyes tested (R40-red food dye No. 40, Y5—yellow food dye No. 5, Y6—yellow food dye No. 6 and PR—phenol red), an appropriate number of milligrams of each powder was placed in a Erlenmeyer Flask and then an exact amount of TALP pH 5.60 was added to create a 250 μM concentration of the dye. The result was a working TALP stock for each dye with a 100% (125 μM) relative amount of dye 50% relative (62.5 μM) and 20% relative (25 μM) solutions were made by dilution of 100% by TALP pH 5.60.
(§4) Single tubes of stained sperm at each of the three Hoechst 33342 concentrations were treated with TALP pH 5.60 which had no dead quenching dye present. Single tubes using Vitamin B12 (red colored chemical) with stock concentration of 15 μM (12% relative) were tested.
(§5) After this “bulk” staining for 60 minutes, 1 mL aliquots of stained sperm were combined with 1 mL aliquots of the second buffer including the dead quenching dyes. Samples sat for approximately 30 minutes at room temperature before being analyzed on a MoFlo SX (Beckman Coulter, USA) sperm sorting flow cytometer. Event rates were held as close to 13,000 as possible at the point of data acquisition.
(§6) The total number of individual treatments was 42 tubes, each containing 2 mL of stained sample. The alignment of the sorter was established using nuclei and confirmed with live sample from the 50% Red 40 series. Once good alignment was established, each tube was placed on the sorter long enough to establish a stabile dead gate population (about 30 seconds) and then a screenshot was taken and saved as a .jpeg image. This approach of rapidly documenting each sample is used to assure the most consistent alignment between all samples. Realignment of sorter will not cause differences in the intensities of live and dead gate populations but will cause differences in split quality.
(§7) FIG. 4 illustrates an example histogram. The ratio of dead gate intensity divided by live gate intensity is created by dividing the distance “A” by the distance “B” shown as a percentage. Lower values mean higher levels of quenching. The ratio of peak height divided by valley height is created by dividing the distance “C” by the distance “D”. A value of 1.00 means “no split” while higher values mean “better splits”.
In general terms: A flow cytometer gives signals particle by particle.

The subject of test [2] is sperm. The experiment in a line: Split quality, height of peak divided by height of valley (Example 5). It counts as cell-based, Jersey bull. How it is done: as §1, §2, §3, §4, §5, §6, §7
The subject of test [3] is membrane compromised sperm. Description: Dead gate intensity, yellow 5 and phenol red at higher concentrations (Example 6). Type of test: cell-based, Jersey bull. To be noted: for Intensity: Hoechst 12 μL/2 mL. The method, then: (§8) A single Jersey bull was collected at an initial sperm concentration 1810×10^6 sperm/ml in a volume of 3.9 ml. The progressive motility of the sperm was 65% with normal morphologies greater than 50%.
(§9) Sperm were suspended at 320 million per mL in 30 mL a first buffer, (TALP described in table 1 at a pH 7.4) with 12 μL of Hoechst 33342 per 2 mL (48 μM) of stain and incubated for 1 hour at 34° C. Stained sperm was then placed as 1 mL aliquots in sample tubes and a 1 mL volume of the appropriate TALP was added. The same second buffer was used as example 1, namely a modified 5.60 pH TALP.
(§10) Each of the stained samples was sorted on a MoFlo SX (Beckman Coulter, USA) as described in Example 6. Screen shots were taken and the dead gate intensity and the split quality were measured in the same way described in Example 1 and recorded in TABLE 14.

Test [4] has as its system sperm. The experiment in a line: Split quality PV (Example 6). It counts as cell-based, Jersey bull. To be noted: for PV: Hoechst 12 μL/2 mL, resulting pH 6.70. The method, then:
as §8, §9, §10

[5] abbreviates: dye 25 μM, Average over Hoechst levels.
The mark [6] stands for this setting: dye 62.5 μM, Average over Hoechst levels.
[7] abbreviates: dye 62.5 μM, Hoechst 12 μL/2 mL.
The mark [8] stands for this setting: dye 62.5 μM, Hoechst 14 μL/2 mL.
The mark [9] stands for this setting: dye 62.5 μM, Hoechst 16 μL/2 mL.
[10] abbreviates: dye 125 μM, Average over Hoechst levels.

As to `O=S(=O)([O-])c1ccc(N=Nc2c(O)ccc3cc(S(=O)(=O)[O-])ccc23)cc1.[Na+].[Na+]` [Yellow 6, Disodium 6-hydroxy-5[(4-sulfophenyl)azo]-2-naphthalenesulfononate], the “Dead Intensity” value in test [1] (setting [5]) is listed as 71%; in test [1] (dye 25 μM, Hoechst 12 μL/2 mL), 68%; in test [1] (dye 25 μM, Hoechst 14 μL/2 mL) it was 74%; in test [1] (dye 25 μM, Hoechst 16 μL/2 mL), 70%; in test [1] (setting [6]) it was 51%; in test [1] (setting [7]), 50%. Moreover, the “Dead Intensity” value turned out to be 52% in test [1] (setting [8]); 52% in test [1] (setting [9]); 39% in test [1] (setting [10]); 37% in test [1] (dye 125 μM, Hoechst 12 μL/2 mL); 40% in test [1] (dye 125 μM, Hoechst 14 μL/2 mL); 40% in test [1] (dye 125 μM, Hoechst 16 μL/2 mL). The “ability to create a dead gate population (ordering of the four dyes)” value in test [1] is “about equal and better than the remaining dyes”. In addition, the “Height of Peak/Height of Valley” value with sperm [2] (setting [7]) is reported as 1.70; with sperm [2] (setting [9]), 1.00; in the test on sperm [2] (dye 125 μM, Hoechst 14 μL/2 mL), 1.80. In addition, the Intensity in test [3] (dye 62.5 μM, resulting pH 6.70) came out at 50%. Further, the PV in the test on sperm [4] (dye 62.5 μM) is on record as 1.00.

As to `O=S1(=O)OC(c2ccc(O)cc2)(c2ccc(O)cc2)c2ccccc21` [Phenol Red, phenolsulfonphthalein], the “Dead Intensity” value worked out at 94% in test [1] (setting [5]); 94% in test [1] (dye 25 μM, Hoechst 12 μL/2 mL); 97% in test [1] (dye 25 μM, Hoechst 14 μL/2 mL); 90% in test [1] (dye 25 μM, Hoechst 16 μL/2 mL); 87% in test [1] (setting [6]); 90% in test [1] (setting [7]). Further, the “Dead Intensity” value amounted to 90% in test [1] (setting [8]); 80% in test [1] (setting [9]); 79% in test [1] (setting [10]); 80% in test [1] (dye 125 μM, Hoechst 12 μL/2 mL); 80% in test [1] (dye 125 μM, Hoechst 14 μL/2 mL); 78% in test [1] (dye 125 μM, Hoechst 16 μL/2 mL). The “Height of Peak/Height of Valley” value in the test on sperm [2] (dye 25 μM, Hoechst 16 μL/2 mL) was 1.00; with sperm [2] (setting [9]), 1.00; with sperm [2] (dye 125 μM, Hoechst 16 μL/2 mL), 1.00. Further, the “amount of dye needed for a similar dead gate intensity ratio as red food dye No. 40 and yellow food dye No. 6” value in test [3] was “twelve”. For the same compound, the Intensity in test [3] (dye 125 μM, resulting pH 6.70) was 79%; in test [3] (dye 250 μM, resulting pH 6.70), 70%; in test [3] (dye 500 μM, resulting pH 6.70), 67%; in test [3] (dye 750 μM, resulting pH 6.70), 55%; in test [3] (dye 875 μM, resulting pH 6.70), 45%; in test [3] (dye 1250 μM, second buffer pH 5.60, resulting pH 6.70), 41%. Further, the “split improvement in understained sample” value in the test on sperm [4] (12 μL/2 mL Hoechst 33342, control samples had no split) is on record as “created a split improvement”. Besides, the PV in the test with sperm [4] (dye 125 μM) stood at 1.00.

Take `COc1cc(S(=O)(=O)O)c(C)cc1N=Nc1c(O)ccc2cc(S(=O)(=O)O)ccc12` [Red 40, 6-hydroxy-5-[(2-methoxy-5-methyl-4-sulfophenyl)azo]-2-naphthalenesulfonic acid, reference compound]: the “Dead Intensity” value in test [1] (setting [5]) was 68%; in test [1] (dye 25 μM, Hoechst 12 μL/2 mL), 68%; in test [1] (dye 25 μM, Hoechst 14 μL/2 mL) it was 72%; in test [1] (dye 25 μM, Hoechst 16 μL/2 mL) it was 65%; in test [1] (setting [6]) it was 52%; in test [1] (setting [7]), 53%. In addition, the “Dead Intensity” value in test [1] (setting [8]) amounted to 53%; in test [1] (setting [9]) it was 50%; in test [1] (setting [10]) it was 38%; in test [1] (dye 125 μM, Hoechst 12 μL/2 mL) it was 37%; in test [1] (dye 125 μM, Hoechst 14 μL/2 mL), 41%; in test [1] (dye 125 μM, Hoechst 16 μL/2 mL), 35%. Moreover, the “ability to create a dead gate population (ordering of the four dyes)” value in test [1] is “about equal and better than the remaining dyes”. Besides, the “Height of Peak/Height of Valley” value with sperm [2] (dye 25 μM, Average for 12 μL and 14 μL stain series) turned out to be 2.00; with sperm [2] (dye 25 μM, Hoechst 16 μL/2 mL) it was 1.00; with sperm [2] (setting [9]), 1.00; in the test with sperm [2] (dye 125 μM, Hoechst 14 μL/2 mL), 2.00. In test [3] (dye 62.5 μM, resulting pH 6.70), this compound showed an Intensity of 53%. This compound registered a PV with sperm [4] (dye 62.5 μM) of 1.00.
